Test results: patent US3966737A, “Fluoro-substituted dibenso[b,f] thiepins” (priority 1973, dated 1976)
Entries after “also recorded” stand apart in the source; their conditions may differ.

What was measured:
Assay type in all cases: in vivo
[1] = system: turnover of dopamine in the basal ganglions; assay: Determination of Homovanillinic Acid (HVA) in rat brain; conditions: rats; for Increase in HVA, %: two hours, titer in untreated rats set at 100%
From the text: […] Thereafter, the homovanillinic acid is extracted from the supernatant portion of a homogenized mixture of the brains of the treated rats into butyl acetate and later into an aqueous solution and is oxidized with potassium ferric cyanide to a fluorescent dimer. […] The homovanillinic acid titer in untreated rats is arbitrarily set at 100%.

[2] = cataleptic effect in rats (intraperitoneal); conditions: for TD50 at 6 h: recorded every 30 minutes over 6 hours, read-out: ED50 (dose at which 50% of the animals are cataleptic)
Description: The following compounds were tested:
The test animals are considered to be cataleptic when the homolateral extremities remain in the crossed position for at least 10 seconds. The number of cataleptic animals is recorded every 30 minutes over a 6-hour period.

[3] = "Pole Climbing" Test, conditioned reaction and unconditioned reaction of rats; conditions: for ED50: Rattus norvegicus, po, read-out: ED50 (Blocking of the conditioned reaction); for Quotient-ED10 (Blocking of the unconditioned reaction)/ED50 (Blocking of the conditioned reaction): higher quotient = stronger selectivity of the neuroleptic effect
From the text: The test provides information regarding the behavioral reactions of rats. Rats are trained to avoid an electrical stimulus (unconditioned stimulation) which is effected through a base grid a few seconds after an acoustical signal (conditioned stimulation) by climbing up a vertical rod in the test chamber. The blocking of the conditioned reaction is expressed by the parameter ED50 (mg/kg. p.o.), the blocking of the unconditioned reaction is expressed by the parameter ED10 (mg/kg. p.o.).

[4] = Rotating Rod Test (coordinated motor performance of mice); conditions: for ED50: Mus musculus, po, read-out: ED50 (dose which reduces the holding on period of the mice by 50%); for activity in the Rotating Rod Test (in words): compared with chlorpromazine
Description: In the Rotating Rod Test, the ability of mice to achieve a coordinated motor performance is investigated. After peroral administration of the test substance, the mice are placed upon a horizontal slowly rotating rod and the time they remain […] the rod is recorded.

[5] = rat, in vivo, ip, rats, intraperitoneal
[6] = rats, intraperitoneal, as compared to chlorpromazine

| SMILES | Increase in HVA, % ([1]; 20 mg/kg p.o.) [%] | cataleptic effect (in words) ([2]; rat, in vivo, ip) | ED50 [3] [mg/kg] | Quotient-ED10 (Blocking of the unconditioned reaction)/ED50 (Blocking of the conditioned reaction) ([3]; rats, p.o.) | ED50 [4] [mg/kg] | activity in the HVA test relative to chlorpromazine (in words) [1] | Increase in HVA, % ([1]; 50 mg/kg p.o.) [%] | TD50 at 6 h [2, 5] [mg/kg] | cataleptic effect (in words) [2, 6] | ED50 ([3]; rats, p.o.) [mg/kg] | quality (selectivity) of the neuroleptic activity relative to chlorpromazine (in words) ([3]; rats, p.o.) | strength of the neuroleptic activity relative to chlorpromazine (in words) ([3]; rats, p.o.) | ED50 ([4]; mice, peroral) [mg/kg] | activity in the Rotating Rod Test (in words) ([4]; mice, peroral, maleate) | activity in the Rotating Rod Test (in words) ([4]; mice, peroral) |
| --- | --- | --- | --- | --- | --- | --- | --- | --- | --- | --- | --- | --- | --- | --- | --- |
| CN(C)CCCN1c2ccccc2Sc2ccc(Cl)cc21 [Chlorpromazine, chlorpromazine, reference compound] | 321 | does demonstrate cataleptic effects | 11.6 | 3.5 | 5 |  |  |  |  |  |  |  |  |  |  |
| CN1CCN(C2Cc3cc(Cl)ccc3Sc3cc(F)ccc32)CC1.O=C(O)/C=C\C(=O)O (stereo not drawn) [Product A, 1-(2-chloro-7-fluoro-10,11-dihydro-dibenzo[b,f]thiepin-10-yl)-4-methylpiperazine maleate] |  |  |  | 3.3 |  | nearly as potent as that of chlorpromazine | 280 | 70 | only very weak cataleptic effect | 30 | about equal to that of chlorpromazine | about half that of chlorpromazine | 5.8 | strong activity; also recorded: activity approximates that of chlorpromazine |  |
| CN1CCN(C2Cc3ccc(Cl)cc3Sc3ccc(F)cc32)CC1.O=C(O)/C=C\C(=O)O (stereo not drawn) [Product B, 1-(3-chloro-8-fluoro-10,11-dihydro-dibenzo[b,f]thiepin-10-yl)-4-methylpiperazine maleate] |  |  |  | 11.0 |  |  |  | 100 | only very weak cataleptic effect | 27 | considerably superior to that of chlorpromazine | about half of that of chlorpromazine | 3.1 |  | superior to chlorpromazine |
| O=C(O)/C=C\C(=O)O.OCCCN1CCN(C2Cc3cc(Cl)ccc3Sc3ccc(F)cc32)CC1 (stereo not drawn) [Product C, 4-(2-chloro-8-fluoro-10,11-dihydro-dibenzo[b,f]thiepin-10-yl)-1-piperazinepropanol maleate] |  |  |  |  |  | nearly as potent as that of chlorpromazine | 273 | 64 | only very weak cataleptic effect |  |  |  |  |  |  |
